Source: patent publication US20230029496A1, “AMINO ACID ALTERNATIVE CURING SYSTEM” (THE TEXAS A&M UNIVERSITY SYSTEM, priority 2019, published 2023)
Where “and” joins values, the source holds several entries; their conditions need not be identical. Identical values can stand only once. Like-named read-outs stand apart in the source and are kept apart here. Marks after values point to notes of the source that are not given here.

Key:
NOS system [1] = test: NO-heme, total heme, nitrosylation in test beef frankfurters (Example 12)
Protocol: (§1) The remaining nonmeat ingredients were added (except the antimicrobial) and chopped at 2000 rpm for one minute. Protecta (sodium acetate antimicrobial) was added and the emulsion chopped at 4000 rpm for one minute. The emulsion was evacuated and placed into a vacuum assisted stuffer where each test emulsion was stuffed and twist linked into 22 mm cellulose casings weighing 40 g each. The frankfurter links were hung on smokehouse trucks, placed into a commercial smokehouse and thermally processed to 160° F. (Table 18).
(§2) After thermal processing and chilling (40° F.), the casings were peeled from the frankfurters and were vacuum packaged and stored under refrigerated conditions for residual nitrite and nitrosylation. […] This was done to determine if the L-arginine could the NOS system to generate sufficient NO for cure color development and residual nitrite for antioxidant and antimicrobial effect.

[2] = test system: nitric oxide synthase system; conditions: beef; for Residual Nitrite, LSMean main effect of Temperature: L-arginine
Protocol: Fresh ground meat (beef, pork or poultry) was separated in ˜0.5 Kg batches and mixed with 2% salt and 10% added water. […] Each individual batch was mixed (1 min) in a food processor, removed for temperature and pH analyses and then placed into a jerky extruder tube. Approximately 25 g of sample were extruded into 50 mL centrifuge, then capped and labeled and placed into a controlled water batch and heated to a designated internal endpoint temperature (132, 158, or 165° F.).
Samples also contained 547 ppm sodium erythorbate, a cure accelerator (Phase I) and without sodium erythorbate (Phase II). Samples were placed into test tubes and heated in a controlled water bath to 132, 158 and 165° F. Samples were held in a 40° F. cooler for seven days then tested for residual nitrite. Residual nitrite was tested after deproteinization for amino acid analysis by HPLC. Determination of nitrite (UV/VIS Spectrophotometric Method) was used to detect any residual nitrite for best results in detecting minute amounts of nitrite. Residual nitrite levels were read in a 96 well plate reader at 540 nm.
Both phases of the experiment were designed as a factorial (concentration level and endpoint temperature) randomized complete block design with three replications. […] Least squares means were generated and Tukey's HSD used to determine significance at P≤0.05.

NOS system [3] = test: Residual nitrite in test beef frankfurters (Example 12); conditions: for Nitrite: 7 days of storage
Protocol: as §1, §2

[4] = test system: nitric oxide synthase system
Protocol: After thermal processing and chilling according to USDA-FSIS Appendix A—Thermal processing (71° C.) and B—Cooling procedures (2° C.) guidelines, the frankfurters will be vacuum packaged and stored under refrigeration (2° C.) until analyzed at 0, 14, 28 and 56 days post manufacture.
The samples were analyzed for residual nitrite after deproteinization by sample preparation for amino acid analysis by HPLC.
Samples were vacuum packaged and refrigerated and evaluated on Day 1, 7, 14, 28 and 56 post manufacture. Differences between treatment and control samples will be determined using Tukey's Least Significant Difference procedure at P≤0.05 level. The experiment was replicated three times.

[5] = not given; remark: listed apart in the source
[6] = 1000 ppm L-arginine with 547 ppm sodium erythorbate
[7] = 1000 ppm L-arginine, no cure accelerator
[8] = 5000 ppm L-arginine with 547 ppm sodium erythorbate
[9] = 5000 ppm L-arginine, no cure accelerator

With `N=C(N)NCCC[C@H](N)C(=O)O` [L-arginine] the NO-Heme (NOS system [1]; [6]) was 23.59^ab ppm, the Nitrosylation (NOS system [1]; [6]) was 59.68^a % and the “Total Heme” value (NOS system [1]; [6]) was 40.35^a ppm. The NO-Heme (NOS system [1]; [7]) was 17.79^b ppm, the Nitrosylation (NOS system [1]; [7]) was 43.64^a % and the “Total Heme” value (NOS system [1]; [7]) was 41.71^a ppm. For the same molecule, the NO-Heme (NOS system [1]; [8]) was 28.32^a ppm, the Nitrosylation (NOS system [1]; [8]) was 55.59^a % and the “Total Heme” value (NOS system [1]; [8]) was 51.00^a ppm. For the same molecule, the NO-Heme (NOS system [1]; [9]) was 27.94^a ppm, the Nitrosylation (NOS system [1]; [9]) was 54.26^a % and the “Total Heme” value (NOS system [1]; [9]) was 52.81^a ppm. For the same molecule, the “Cure color (nitrosylation)” value (NOS system [1]; range over L-arginine frankfurters) was 43.64 to 59.68%, the pH (L-arginine 3000 PPM, Day 1) was 5.91 and the pH (L-arginine 3000 PPM, Day 7) was 5.86. It also gave a pH (L-arginine 3000 PPM, Day 14) of 6.02, a pH (L-arginine 3000 PPM, Day 28) of 6.06 and a pH (L-arginine 4000 PPM, Day 1) of 5.92. It also gave a pH (L-arginine 4000 PPM, Day 7) of 5.90, a pH (L-arginine 4000 PPM, Day 14) of 5.96 and a pH (L-arginine 4000 PPM, Day 28) of 6.00. The pH (L-arginine 5000 PPM, Day 1) was 5.87, the pH (L-arginine 5000 PPM, Day 7) was 5.92 and the pH (L-arginine 5000 PPM, Day 14) was 5.94. The pH (L-arginine 5000 PPM, Day 28) was 6.01, the “Residual Nitrite, LSMean Conc × Temp” value ([2]; Phase I, with 547 ppm sodium erythorbate, 1000 ppm L-arginine, 132° F.) was 85.37 ppm and the “Residual Nitrite, LSMean Conc × Temp” value ([2]; Phase I, with 547 ppm sodium erythorbate, 1000 ppm L-arginine, 158° F.) was 76.56 ppm. For the same molecule, the “Residual Nitrite, LSMean Conc × Temp” value ([2]; Phase I, with 547 ppm sodium erythorbate, 1000 ppm L-arginine, 165° F.) was 65.51 ppm, the “Residual Nitrite, LSMean Conc × Temp” value ([2]; Phase I, with 547 ppm sodium erythorbate, 2000 ppm L-arginine, 132° F.) was 82.58 ppm and the “Residual Nitrite, LSMean Conc × Temp” value ([2]; Phase I, with 547 ppm sodium erythorbate, 2000 ppm L-arginine, 158° F.) was 66.33 ppm. For the same molecule, the “Residual Nitrite, LSMean Conc × Temp” value ([2]; Phase I, with 547 ppm sodium erythorbate, 2000 ppm L-arginine, 165° F.) was 75.98 ppm, the “Residual Nitrite, LSMean Conc × Temp” value ([2]; Phase I, with 547 ppm sodium erythorbate, 3000 ppm L-arginine, 132° F.) was 78.11 ppm and the “Residual Nitrite, LSMean Conc × Temp” value ([2]; Phase I, with 547 ppm sodium erythorbate, 3000 ppm L-arginine, 158° F.) was 84.73 ppm. For the same molecule, the “Residual Nitrite, LSMean Conc × Temp” value ([2]; Phase I, with 547 ppm sodium erythorbate, 3000 ppm L-arginine, 165° F.) was 57.42 ppm, the “Residual Nitrite, LSMean Conc × Temp” value ([2]; Phase I, with 547 ppm sodium erythorbate, 4000 ppm L-arginine, 132° F.) was 72.90 ppm and the “Residual Nitrite, LSMean Conc × Temp” value ([2]; Phase I, with 547 ppm sodium erythorbate, 4000 ppm L-arginine, 158° F.) was 83.35 ppm. The “Residual Nitrite, LSMean Conc × Temp” value ([2]; Phase I, with 547 ppm sodium erythorbate, 4000 ppm L-arginine, 165° F.) was 52.11 ppm, the “Residual Nitrite, LSMean Conc × Temp” value ([2]; Phase I, with 547 ppm sodium erythorbate, 5000 ppm L-arginine, 132° F.) was 57.48 ppm and the “Residual Nitrite, LSMean Conc × Temp” value ([2]; Phase I, with 547 ppm sodium erythorbate, 5000 ppm L-arginine, 158° F.) was 48.52 ppm. For the same molecule, the “Residual Nitrite, LSMean Conc × Temp” value ([2]; Phase I, with 547 ppm sodium erythorbate, 5000 ppm L-arginine, 165° F.) was 38.80 ppm, the “Residual Nitrite, LSMean main effect of Concentration” value (“Residual Nitrite … of Concentration” below) ([2]; Phase II, without 547 ppm sodium erythorbate, 1000 ppm L-arginine) was 107.03^a ppm and 107.03 ppm and the “Residual Nitrite, LSMean Conc × Temp” value ([2]; Phase II, without 547 ppm sodium erythorbate, 1000 ppm L-arginine, 132° F.) was 110.31^a ppm. The “Residual Nitrite, LSMean Conc × Temp” value ([2]; Phase II, without 547 ppm sodium erythorbate, 1000 ppm L-arginine, 158° F.) was 117.12^a ppm, the “Residual Nitrite, LSMean Conc × Temp” value ([2]; Phase II, without 547 ppm sodium erythorbate, 1000 ppm L-arginine, 165° F.) was 93.64^abc ppm and the “Residual Nitrite … of Concentration” value ([2]; Phase II, without 547 ppm sodium erythorbate, 2000 ppm L-arginine) was 105.44^a ppm and 105.44 ppm. The “Residual Nitrite, LSMean Conc × Temp” value ([2]; Phase II, without 547 ppm sodium erythorbate, 2000 ppm L-arginine, 132° F.) was 101.25^abc ppm, the “Residual Nitrite, LSMean Conc × Temp” value ([2]; Phase II, without 547 ppm sodium erythorbate, 2000 ppm L-arginine, 158° F.) was 96.50^abc ppm and the “Residual Nitrite, LSMean Conc × Temp” value ([2]; Phase II, without 547 ppm sodium erythorbate, 2000 ppm L-arginine, 165° F.) was 118.58^a ppm. The “Residual Nitrite … of Concentration” value ([2]; Phase II, without 547 ppm sodium erythorbate, 3000 ppm L-arginine) was 102.80^a ppm and 102.80 ppm, the “Residual Nitrite, LSMean Conc × Temp” value ([2]; Phase II, without 547 ppm sodium erythorbate, 3000 ppm L-arginine, 132° F.) was 107.12^ab ppm and the “Residual Nitrite, LSMean Conc × Temp” value ([2]; Phase II, without 547 ppm sodium erythorbate, 3000 ppm L-arginine, 158° F.) was 111.73^a ppm. The “Residual Nitrite, LSMean Conc × Temp” value ([2]; Phase II, without 547 ppm sodium erythorbate, 3000 ppm L-arginine, 165° F.) was 89.54^abc ppm, the “Residual Nitrite … of Concentration” value ([2]; Phase II, without 547 ppm sodium erythorbate, 4000 ppm L-arginine) was 90.87^a ppm and 90.87 ppm and the “Residual Nitrite, LSMean Conc × Temp” value ([2]; Phase II, without 547 ppm sodium erythorbate, 4000 ppm L-arginine, 132° F.) was 101.77^ab ppm. For the same molecule, the “Residual Nitrite, LSMean Conc × Temp” value ([2]; Phase II, without 547 ppm sodium erythorbate, 4000 ppm L-arginine, 158° F.) was 113.35^a ppm, the “Residual Nitrite, LSMean Conc × Temp” value ([2]; Phase II, without 547 ppm sodium erythorbate, 4000 ppm L-arginine, 165° F.) was 57.51^bcd ppm and the “Residual Nitrite … of Concentration” value ([2]; Phase II, without 547 ppm sodium erythorbate, 5000 ppm L-arginine) was 40.23^b ppm and 40.23 ppm. The “Residual Nitrite, LSMean Conc × Temp” value ([2]; Phase II, without 547 ppm sodium erythorbate, 5000 ppm L-arginine, 132° F.) was 52.68^cd ppm, the “Residual Nitrite, LSMean Conc × Temp” value ([2]; Phase II, without 547 ppm sodium erythorbate, 5000 ppm L-arginine, 158° F.) was 37.81^d ppm and the “Residual Nitrite, LSMean Conc × Temp” value ([2]; Phase II, without 547 ppm sodium erythorbate, 5000 ppm L-arginine, 165° F.) was 30.19^d ppm. The “Residual Nitrite, LSMean main effect of Temperature” value (“Residual Nitrite … of Temperature” for short) ([2]; Phase II, without 547 ppm sodium erythorbate, 132° F.) was 95.63^a ppm and 95.63 ppm, the “Residual Nitrite … of Temperature” value ([2]; Phase II, without 547 ppm sodium erythorbate, 158° F.) was 95.30^a ppm and 95.30 ppm and the “Residual Nitrite … of Temperature” value ([2]; Phase II, without 547 ppm sodium erythorbate, 165° F.) was 77.89^b ppm and 77.89 ppm. The Nitrite (NOS system [3]; [6]) was 13 ppm and 13.43^bc ppm, the Nitrite (NOS system [3]; [7]) was 8.02^d ppm and the Nitrite (NOS system [3]; [8]) was 16 ppm and 15.87^b ppm. For the same molecule, the Nitrite (NOS system [3]; [9]) was 10.64^cd ppm, the residual nitrite levels (NOS system [3]; range over L-arginine treated frankfurters after 7 days of storage) was 8.02 to 15.87 ppm and the residual sodium nitrite ([4]; 3000 ppm L-arginine, Day 1) was 55.90. For the same molecule, the residual sodium nitrite ([4]; 3000 ppm L-arginine, Day 7) was 55.83, the residual sodium nitrite ([4]; 3000 ppm L-arginine, Day 14) was 62.60 and the residual sodium nitrite ([4]; 3000 ppm L-arginine, Day 28) was 58.68. The residual sodium nitrite ([4]; 4000 ppm L-arginine, Day 1) was 49.92, the residual sodium nitrite ([4]; 4000 ppm L-arginine, Day 7) was 60.36 and the residual sodium nitrite ([4]; 4000 ppm L-arginine, Day 14) was 53.71. It also gave a residual sodium nitrite ([4]; 4000 ppm L-arginine, Day 28) of 79.07, a residual sodium nitrite ([4]; 5000 ppm L-arginine, Day 1) of 73.95 and a residual sodium nitrite ([4]; 5000 ppm L-arginine, Day 7) of 61.77. For the same molecule, the residual sodium nitrite ([4]; 5000 ppm L-arginine, Day 14) was 52.91, the residual sodium nitrite ([4]; 5000 ppm L-arginine, Day 28) was 100.11 and the “water activity (Aw)” value ([5]; 3000 ppm L-arginine, Day 1) was 0.979. The “water activity (Aw)” value ([5]; 3000 ppm L-arginine, Day 7) was 0.978, the “water activity (Aw)” value ([5]; 3000 ppm L-arginine, Day 14) was 0.976 and the “water activity (Aw)” value ([5]; 3000 ppm L-arginine, Day 28) was 0.982. The “water activity (Aw)” value ([5]; 4000 ppm L-arginine, Day 1) was 0.979, the “water activity (Aw)” value ([5]; 4000 ppm L-arginine, Day 7) was 0.982 and the “water activity (Aw)” value ([5]; 4000 ppm L-arginine, Day 14) was 0.975. For the same molecule, the “water activity (Aw)” value ([5]; 4000 ppm L-arginine, Day 28) was 0.975, the “water activity (Aw)” value ([5]; 5000 ppm L-arginine, Day 1) was 0.982 and the “water activity (Aw)” value ([5]; 5000 ppm L-arginine, Day 7) was 0.957. The “water activity (Aw)” value ([5]; 5000 ppm L-arginine, Day 14) was 0.972 and the “water activity (Aw)” value ([5]; 5000 ppm L-arginine, Day 28) was 0.976.
